In US20240226049A1, “METHODS OF TREATMENT USING BEMPEDOIC ACID” (Esperion Therapeutics, Inc., priority 2023, published 2024):
Where “and” joins values, the source holds several entries; their conditions need not be identical. Equal values may be shown once.

Tested on: primary prevention patients unable to tolerate recommended doses of statins
Assay: CLEAR OUTCOMES primary prevention subgroup (Example 2): time-to-event efficacy end points
Format: in vivo, human
Procedure: The rationale, design and methods of the CLEAR Outcomes trial is described in Example 1. The trial was conducted at 1250 sites in 32 countries and designed by the Cleveland Clinic Coordinating Center for Clinical Research (C5Research) and an academic Executive Committee in collaboration with the sponsor. The protocol was approved by ethics committees at participating sites and all patients provided written informed consent before enrollment. A contract research organization collected the data which were transferred to C5Research at completion of the trial whose statisticians conducted the analyses described herein. An independent Data Monitoring Committee monitored the trial.
Primary prevention patients 18 to 85 years of age with an LDL cholesterol ≥100 mg/dL with clinical features placing them at high risk for a first cardiovascular event were eligible. Criteria for high cardiovascular risk included risk scores, such as the Reynolds Risk Score and the SCORE project (Ridker et al., Development and validation of improved algorithms for the assessment of global cardiovascular risk in women: the Reynolds Risk Score, JAMA. 2007 Feb. 14; 297(6):611-9; Ridker et al., C-reactive protein and parental history improve global cardiovascular risk prediction. The Reynolds Risk Score for men, Circulation. 2008; 118: 2243-2251; European Guidelines on CVD Prevention in Clinical Practice. 2016. Eur J Prev Cardiol. 2016 July; 23(11):NP1-NP96), a coronary artery calcium score >400 Agatston units (AU) or presence of either type 1 or 2 diabetes in women aged >65 years or men older than 60 years.
Investigators were responsible for assessing the patient for statin intolerance. Patients had to report statin intolerance due to an adverse effect that started or increased during statin therapy and resolved or improved after statin therapy was discontinued. Entry criteria required inability to tolerate 2 or more statins at any dose or 1 statin and unwillingness to attempt a second statin or advised by a physician not to attempt taking a second statin. Both the patient and site investigator were required to provide written confirmation that the patient was statin intolerant and aware of the benefits of statins to reduce the risk of cardiovascular events, including death, and acknowledge that many patients who are unable to tolerate a statin can tolerate a different statin or dose. Patients could be enrolled if they tolerated a very low average daily statin dose defined as rosuvastatin <5 mg, atorvastatin <10 mg, simvastatin <10 mg, lovastatin <20 mg, pravastatin <40 mg, fluvastatin <40 mg, or pitavastatin <2 mg. Other background lipid-lowering therapies were permitted, including ezetimibe, niacin, bile acid resins, fibrates, and/or proprotein convertase subtilisin kexin type 9 (PCSK9) inhibitors.
Eligible patients entered a 4-week run-in period during which patients were treated with single-blind placebo. If patients were intolerant to placebo treatment or if adherence was <80% by tablet count, they were not eligible for randomization. Patients who successfully completed the run-in period were randomly assigned in a 1:1 ratio to receive a 180 mg oral dose of bempedoic acid or matching placebo, administered daily. During the trial, LDL cholesterol and hsCRP results were masked. Beginning 6 months after randomization, the central laboratory notified the investigator, who remained blinded to treatment assignment, if the patient's LDL cholesterol level was ≥25% higher than baseline. Repeat testing was performed after the patient was counseled about diet and encouraged to take all medications as prescribed. The patient returned for a repeat fasting blood lipid profile to confirm whether the LDL cholesterol value exceeded the threshold criteria. If confirmed, the patient's treatment regimen for LDL cholesterol lowering could be adjusted, per standard of care and local practice. […]

[1] = primary prevention patients, 180 mg oral daily, N = 2100
[2] = vs placebo, primary prevention, adjusted for baseline characteristics
[3] = vs placebo, primary prevention, adjusted for baseline characteristics, listed as bempedoic acid
[4] = vs placebo, primary prevention, unadjusted

## CC(C)(CCCCCC(O)CCCCCC(C)(C)C(=O)O)C(=O)O [Bempedoic Acid, Bempedoic acid]
[1]
  3-component MACE, % of patients: 4.0%
  3-component MACE, number of patients: 83 number of patients
  5-component MACE, % of patients: 5.3%
  5-component MACE, number of patients: 112 number of patients
  All-cause mortality, % of patients: 3.6%
  All-cause mortality, number of patients: 75 number of patients
  Cardiovascular death, % of patients: 1.8%
  Cardiovascular death, number of patients: 37 number of patients
  Coronary revascularization, % of patients: 2.4%
  Coronary revascularization, number of patients: 50 number of patients
  Fatal and non-fatal MI, % of patients: 1.4%
  Fatal and non-fatal MI, number of patients: 29 number of patients
  Fatal and non-fatal stroke, % of patients: 1.3%
  Fatal and non-fatal stroke, number of patients: 27 number of patients
  Hospitalization for unstable angina, % of patients: 0.5%
  Hospitalization for unstable angina, number of patients: 10 number of patients
  Primary efficacy endpoint (MACE-4), % of patients: 5.3%
  Primary efficacy endpoint (MACE-4), number of patients: 111 number of patients
Primary prevention patients, 4-component MACE
  number need to treat (NNT) to prevent one primary composite outcome: 43 patients
Primary prevention patients, vs placebo
  effect on stroke and coronary revascularization: not significantly reduced
[2]
  3-component MACE, Hazard Ratio (95% CI), adjusted: 0.64 (0.48-0.84)
  5-component MACE, Hazard Ratio (95% CI), adjusted: 0.69 (0.54-0.88)
  All-cause mortality, Hazard Ratio (95% CI), adjusted: 0.73 (0.54-0.98)
  Cardiovascular death, Hazard Ratio (95% CI), adjusted: 0.61 (0.41-0.92)
  Coronary revascularization, Hazard Ratio (95% CI), adjusted: 0.71 and 0.71 (0.49-1.03)
  Fatal and non-fatal MI, Hazard Ratio (95% CI), adjusted: 0.61 (0.39-0.98)
  Fatal and non-fatal stroke, Hazard Ratio (95% CI), adjusted: 0.76 (0.46-1.26)
  Hospitalization for unstable angina, Hazard Ratio (95% CI), adjusted: 0.58 (0.26-1.27)
  Primary efficacy endpoint (MACE-4), Hazard Ratio (95% CI), adjusted: 0.70 (0.55-0.89)
[3]
  3-component MACE, Hazard Ratio (95% CI), adjusted: 0.64
  5-component MACE, Hazard Ratio (95% CI), adjusted: 0.69
  All-cause mortality, Hazard Ratio (95% CI), adjusted: 0.73
  Cardiovascular death, Hazard Ratio (95% CI), adjusted: 0.61
  Fatal and non-fatal MI, Hazard Ratio (95% CI), adjusted: 0.61
  Fatal and non-fatal stroke, Hazard Ratio (95% CI), adjusted: 0.76
  Hospitalization for unstable angina, Hazard Ratio (95% CI), adjusted: 0.58
  Primary efficacy endpoint (MACE-4), Hazard Ratio (95% CI), adjusted: 0.70
[4]
  3-component MACE, Hazard Ratio (95% CI), unadjusted: 0.61 (0.46-0.80)
  5-component MACE, Hazard Ratio (95% CI), unadjusted: 0.67 (0.53-0.86)
  All-cause mortality, Hazard Ratio (95% CI), unadjusted: 0.69 (0.51-0.92)
  Coronary revascularization, Hazard Ratio (95% CI), unadjusted: 0.73 (0.50-1.05)
  Death from cardiovascular causes, Hazard Ratio (95% CI), unadjusted: 0.57 (0.38-0.85)
  Fatal and non-fatal MI, Hazard Ratio (95% CI), unadjusted: 0.61 (0.38-0.97)
  Fatal and non-fatal stroke, Hazard Ratio (95% CI), unadjusted: 0.72 (0.44-1.19)
  Hospitalization for unstable angina, Hazard Ratio (95% CI), unadjusted: 0.58 (0.27-1.27)
  Primary efficacy endpoint (MACE-4), Hazard Ratio (95% CI), unadjusted: 0.68 (0.53-0.87)
